Assay results taken from ChEMBL document CHEMBL1128029, “Synthesis and biological properties of a new series of anti-MRSA -lactams; 2-(thiazol-2-ylthio)carbapenems” (Bioorg Med Chem Lett, 1994).
In brackets after ≈: the same amount, converted by molar mass.

How the values were obtained:
[1] = test system: Escherichia coli; test: In vitro minimum inhibitory concentration against Escherichia coli NIHJ JC-2; format: functional
[2] = test system: Klebsiella pneumoniae; test: In vitro minimum inhibitory concentration against Klebsiella pneumoniae ATCC 10031; format: functional
[3] = test system: Staphylococcus epidermidis; test: In vitro minimum inhibitory concentration against Staphylococcus epidermidis IAM1296; format: functional
[4] = test system: Staphylococcus aureus; test: In vitro minimum inhibitory concentration against Staphylococcus aureus MS9408; format: functional
[5] = test system: Staphylococcus aureus; test: In vitro minimum inhibitory concentration against Staphylococcus aureus SP-7928; format: functional
[6] = target: Albumin (Homo sapiens, UniProt P02768); test: Binding affinity towards Human Serum albumin.
[7] = test system: Staphylococcus aureus; test: In vitro minimum inhibitory concentration against Staphylococcus aureus 209p; format: functional
[8] = target: T1, Dipeptidase 1 (Sus scrofa) (UniProt P22412); test: Time of enzyme-catalyzed hydrolysis from 500 uM to 400 uM in the presence of purified renal DHP-1 of swine
T1 sequence (whole entry): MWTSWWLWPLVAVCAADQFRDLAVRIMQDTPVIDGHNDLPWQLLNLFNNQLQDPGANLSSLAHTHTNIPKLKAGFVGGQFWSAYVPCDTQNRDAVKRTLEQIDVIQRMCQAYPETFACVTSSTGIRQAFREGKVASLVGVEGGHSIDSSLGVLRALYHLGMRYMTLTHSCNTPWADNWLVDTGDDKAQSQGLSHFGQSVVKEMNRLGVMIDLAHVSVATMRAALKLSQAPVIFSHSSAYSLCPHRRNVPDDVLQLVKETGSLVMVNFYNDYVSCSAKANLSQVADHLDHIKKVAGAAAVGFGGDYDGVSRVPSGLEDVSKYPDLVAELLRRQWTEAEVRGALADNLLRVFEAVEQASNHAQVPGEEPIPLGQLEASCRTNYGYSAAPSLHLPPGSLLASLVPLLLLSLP

Chain of Albumin (P02768 whole entry): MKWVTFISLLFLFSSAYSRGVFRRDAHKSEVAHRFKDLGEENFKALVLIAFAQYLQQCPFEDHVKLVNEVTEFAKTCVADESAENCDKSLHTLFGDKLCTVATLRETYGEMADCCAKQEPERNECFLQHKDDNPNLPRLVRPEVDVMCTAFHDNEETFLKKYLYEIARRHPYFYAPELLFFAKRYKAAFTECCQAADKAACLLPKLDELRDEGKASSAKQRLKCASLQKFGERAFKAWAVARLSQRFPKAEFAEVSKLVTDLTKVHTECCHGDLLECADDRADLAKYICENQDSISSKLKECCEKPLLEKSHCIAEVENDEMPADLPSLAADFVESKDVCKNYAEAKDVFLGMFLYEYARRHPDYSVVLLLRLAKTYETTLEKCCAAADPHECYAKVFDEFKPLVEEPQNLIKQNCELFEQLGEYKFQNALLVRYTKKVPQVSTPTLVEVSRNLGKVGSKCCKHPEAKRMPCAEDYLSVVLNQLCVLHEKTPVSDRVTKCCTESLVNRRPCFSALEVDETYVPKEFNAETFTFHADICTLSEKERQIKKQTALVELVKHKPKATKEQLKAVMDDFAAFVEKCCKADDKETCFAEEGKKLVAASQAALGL

| Structure (SMILES) | MIC [1] [µg/mL] | MIC [2] [µg/mL] | MIC [3] [µg/mL] | MIC [4] [µg/mL] | MIC [5] [µg/mL] | Binding [6] [%] | MIC [7] [µg/mL] | TIME [8] [h] |
| --- | --- | --- | --- | --- | --- | --- | --- | --- |
| C[C@@H](O)[C@H]1C(=O)N2C(C(=O)O)=C(Sc3nc(-c4ccc(C(N)=O)cc4)cs3)[C@H](C)[C@H]12 | 6.25 (≈ 14 µM) | 0.1 (≈ 0.224 µM) | 0.025 (≈ 0.0561 µM) | 0.2 (≈ 0.449 µM) | 1.56 (≈ 3.5 µM) | 99 | < 0.006 | 0.2 |
| C[C@@H](O)[C@H]1C(=O)N2C(C(=O)[O-])=C(Sc3nc(-c4ccc5cc[n+](C)cc5c4)cs3)[C@H](C)[C@H]12 | 3.13 (≈ 6.69 µM) | 0.05 (≈ 0.107 µM) | 0.013 (≈ 0.0278 µM) | 0.05 (≈ 0.107 µM) | 0.78 (≈ 1.67 µM) | 59 | < 0.006 | 0.2 |
| C[C@@H](O)[C@H]1C(=O)N2C(C(=O)[O-])=C(Sc3nc(-c4ccc[n+](CC(N)=O)c4)cs3)[C@H](C)[C@H]12 | 0.39 (≈ 0.847 µM) | 0.05 (≈ 0.109 µM) | 0.025 (≈ 0.0543 µM) | 0.2 (≈ 0.434 µM) | 1.56 (≈ 3.39 µM) | 24 | < 0.006 | 0.283 |
| C[C@@H](O)[C@H]1C(=O)N2C(C(=O)O)=C(Sc3nc(-c4ccc5ccncc5c4)cs3)[C@H](C)[C@H]12 | 12.5 (≈ 27.6 µM) | 0.2 (≈ 0.441 µM) | 0.025 (≈ 0.0551 µM) | 0.1 (≈ 0.22 µM) | 0.78 (≈ 1.72 µM) | 99 | < 0.006 | 0.162 |
| C[C@@H](O)[C@H]1C(=O)N2C(C(=O)O)=C(Sc3nc(-c4cccnc4)cs3)[C@H](C)[C@H]12 | 6.25 (≈ 15.5 µM) | 0.05 (≈ 0.124 µM) | 0.025 (≈ 0.062 µM) | 0.2 (≈ 0.496 µM) | 1.56 (≈ 3.87 µM) | 97 | < 0.013 | 0.0533 |
| C[C@@H](O)[C@H]1C(=O)N2C(C(=O)O)=C(Sc3nc(-c4ccncc4)cs3)[C@H](C)[C@H]12 | 6.25 (≈ 15.5 µM) | 0.2 (≈ 0.496 µM) | 0.05 (≈ 0.124 µM) | 0.2 (≈ 0.496 µM) | 3.13 (≈ 7.76 µM) | 97 | < 0.013 | 0.267 |
| C[C@@H](O)[C@H]1C(=O)N2C(C(=O)O)=C(SCCN=CN)C[C@H]12 [IMIPENEM ANHYDROUS] |  |  |  |  |  | < 10 |  |  |
| Cc1nc(SC2=C(C(=O)O)N3C(=O)[C@H]([C@@H](C)O)[C@H]3[C@H]2C)sc1C | 3.13 (≈ 8.83 µM) | 0.2 (≈ 0.564 µM) | 0.1 (≈ 0.282 µM) | 0.78 (≈ 2.2 µM) | 6.25 (≈ 17.6 µM) | > 75 | 0.025 (≈ 0.0705 µM) | 0.383 |
| CCCc1csc(SC2=C(C(=O)O)N3C(=O)[C@H]([C@@H](C)O)[C@H]3[C@H]2C)n1 | 12.5 (≈ 33.9 µM) | 0.2 (≈ 0.543 µM) | 0.05 (≈ 0.136 µM) | 0.39 (≈ 1.06 µM) | 3.13 (≈ 8.49 µM) | 96 | 0.025 (≈ 0.0678 µM) | 0.2 |
| C[C@@H](O)[C@H]1C(=O)N2C(C(=O)O)=C(Sc3nc(-c4ccc(Cl)cc4)cs3)[C@H](C)[C@H]12 | 12.5 (≈ 28.6 µM) | 0.2 (≈ 0.458 µM) | 0.025 (≈ 0.0572 µM) | 0.2 (≈ 0.458 µM) | 1.56 (≈ 3.57 µM) | > 94 | < 0.013 | 0.165 |
| C[C@@H](O)[C@H]1C(=O)N2C(C(=O)O)=C(Sc3nc(-c4ccccc4)cs3)[C@H](C)[C@H]12 | 6.25 (≈ 15.5 µM) | 0.1 (≈ 0.248 µM) | 0.025 (≈ 0.0621 µM) | 0.1 (≈ 0.248 µM) | 0.78 (≈ 1.94 µM) | > 94 | < 0.013 | 0.163 |
| C[C@@H](O)[C@H]1C(=O)N2C(C(=O)[O-])=C(Sc3nc(-c4ccc[n+](C)c4)cs3)[C@H](C)[C@H]12 | 0.39 (≈ 0.934 µM) | 0.05 (≈ 0.12 µM) | 0.025 (≈ 0.0599 µM) | 0.2 (≈ 0.479 µM) | 1.56 (≈ 3.74 µM) | 7.8 | < 0.013 | 0.467 |
| C[C@@H](O)[C@H]1C(=O)N2C(C(=O)O)=C(Sc3ncc(-c4ccccc4)s3)[C@H](C)[C@H]12 | 25 (≈ 62.1 µM) | 0.39 (≈ 0.969 µM) | 0.39 (≈ 0.969 µM) | 0.39 (≈ 0.969 µM) | 12.5 (≈ 31.1 µM) | > 94 | < 0.006 | 0.25 |
| C[C@@H](O)[C@H]1C(=O)N2C(C(=O)[O-])=C(Sc3nc(-c4cc[n+](CC(N)=O)cc4)cs3)[C@H](C)[C@H]12 | 0.2 (≈ 0.434 µM) | 0.025 (≈ 0.0543 µM) | 0.05 (≈ 0.109 µM) | 0.2 (≈ 0.434 µM) | 1.56 (≈ 3.39 µM) | 15 | < 0.006 | 0.35 |
| Cc1csc(SC2=C(C(=O)O)N3C(=O)[C@H]([C@@H](C)O)[C@H]3[C@H]2C)n1 | 3.13 (≈ 9.19 µM) | 0.05 (≈ 0.147 µM) | 0.05 (≈ 0.147 µM) | 0.39 (≈ 1.15 µM) | 3.13 (≈ 9.19 µM) | 93 | 0.025 (≈ 0.0734 µM) | 0.217 |
| C[C@@H](O)[C@H]1C(=O)N2C(C(=O)O)=C(SCCNC=N)C[C@H]12 [IMIPENEM ANHYDROUS] | 0.1 (≈ 0.334 µM) | 0.1 (≈ 0.334 µM) | 0.2 (≈ 0.668 µM) | 0.78 (≈ 2.61 µM) | 50 (≈ 167 µM) |  | 0.013 (≈ 0.0434 µM) | 0.2 |
| C[C@@H](O)[C@H]1C(=O)N2C(C(=O)[O-])=C(Sc3nc(-c4cc[n+](C)cc4)cs3)[C@H](C)[C@H]12 | 0.39 (≈ 0.934 µM) | 0.025 (≈ 0.0599 µM) | 0.025 (≈ 0.0599 µM) | 0.1 (≈ 0.24 µM) | 1.56 (≈ 3.74 µM) | 12 | < 0.006 | 0.383 |
| C[C@@H](O)[C@H]1C(=O)N2C(C(=O)O)=C(Sc3nc(-c4ccc(N)cc4)cs3)[C@H](C)[C@H]12 | 6.25 (≈ 15 µM) | 0.05 (≈ 0.12 µM) | 0.025 (≈ 0.0599 µM) | 0.2 (≈ 0.479 µM) | 1.56 (≈ 3.74 µM) | 98 | < 0.013 | 0.3 |
| C[C@@H](O)[C@H]1C(=O)N2C(C(=O)O)=C(Sc3nccs3)[C@H](C)[C@H]12 | 0.78 (≈ 2.39 µM) | 0.05 (≈ 0.153 µM) | 0.1 (≈ 0.306 µM) | 0.78 (≈ 2.39 µM) | 12.5 (≈ 38.3 µM) | 69 | 0.025 (≈ 0.0766 µM) | 0.25 |
| C[C@@H](O)[C@H]1C(=O)N2C(C(=O)O)=C(Sc3nc(-c4ccc(CN)cc4)cs3)[C@H](C)[C@H]12 | 1.56 (≈ 3.61 µM) | 0.2 (≈ 0.463 µM) | 0.025 (≈ 0.0579 µM) | 0.2 (≈ 0.463 µM) | 1.56 (≈ 3.61 µM) | 87 | < 0.006 |  |
| Cc1ccc(-c2csc(SC3=C(C(=O)O)N4C(=O)[C@H]([C@@H](C)O)[C@H]4[C@H]3C)n2)cc1 | 12.5 (≈ 30 µM) | 0.39 (≈ 0.936 µM) | 0.025 (≈ 0.06 µM) | 0.2 (≈ 0.48 µM) | 3.13 (≈ 7.51 µM) | > 94 | < 0.006 | 0.153 |
| C[C@@H](O)[C@H]1C(=O)N2C(C(=O)O)=C(Sc3nc4ccccc4s3)[C@H](C)[C@H]12 | 25 (≈ 66.4 µM) | 0.78 (≈ 2.07 µM) | 0.2 (≈ 0.531 µM) | 0.78 (≈ 2.07 µM) | 3.13 (≈ 8.31 µM) | > 94 | 0.025 (≈ 0.0664 µM) |  |
